Experimental data reported in patent US12686665B2, “Bicyclic fused ring derivative or salt thereof and pharmaceutical composition comprising same” (YUHAN CORPORATION, priority 2021, dated 2026).
Where a name gives a salt, the structure may show the parent alone.

Tests used:
Type in all cases: biochemical
[1] = target: T1, recombinant human MAO-A (monoamine oxidase-A) (Homo sapiens, UniProt P21397); test: Amplex Red HRP-coupled amine oxidase assay, recombinant human MAO-A; settings: 0.5 mM tyramine substrate, read-out: Inhibitory activity (IC50, nM) MAO-A
T1 construct: purchased Sigma-Aldrich
T1 sequence (P21397 1-527): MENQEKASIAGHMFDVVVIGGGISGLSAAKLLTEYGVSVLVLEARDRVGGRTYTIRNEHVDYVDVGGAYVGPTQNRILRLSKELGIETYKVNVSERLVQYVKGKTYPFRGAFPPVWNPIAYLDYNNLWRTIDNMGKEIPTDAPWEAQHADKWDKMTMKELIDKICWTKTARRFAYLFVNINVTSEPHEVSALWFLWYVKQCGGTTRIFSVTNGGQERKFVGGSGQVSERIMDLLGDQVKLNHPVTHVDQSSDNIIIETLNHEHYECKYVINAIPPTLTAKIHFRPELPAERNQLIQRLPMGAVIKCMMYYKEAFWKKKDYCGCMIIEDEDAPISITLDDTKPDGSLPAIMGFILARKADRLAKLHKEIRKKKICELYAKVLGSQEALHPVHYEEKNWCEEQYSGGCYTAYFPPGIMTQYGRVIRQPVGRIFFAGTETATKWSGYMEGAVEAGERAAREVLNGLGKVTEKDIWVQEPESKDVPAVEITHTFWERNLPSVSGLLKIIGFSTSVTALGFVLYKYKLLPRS
Description: (§1) The activities of the compounds according to the present invention against recombinant human Lysyl Oxidase-Like 2 (recombinant human LOXL2, R&D systems) were evaluated by measuring the levels of hydrogen peroxide in the HRP (horseradish peroxidase) coupled reactions, with the Amplex Red Hydrogen Peroxide Assay Kit (Molecular Probes, Invitrogen, USA). The tests were carried out at 37° C., and putrescine was used as a substrate. In the HRP coupling reaction, the oxidation of 10-acetyl-3,7-dihydroxyphenoxazine (Amplex Red reagent) by hydrogen peroxide generates a fluorescent product, i.e., resorufin. Briefly, the test compounds were dissolved in dimethyl sulfoxide (DMSO) at a concentration of 20 mM. Dose-response measurements were carried out by serial dilutions in DMSO to generate a six-point curve. The upper concentration was adjusted according to the potency of the compound, and then diluted with the reaction buffer to obtain a final DMSO concentration of 1%. Purified human LOXL2 in 50 mM sodium phosphate buffer (pH7.4) was added to each well of a 96 well black plate. The test compounds dissolved in DMSO were incubated with the human LOXL2 enzyme at 37° C. for 60 minutes. After the incubation for 60 minutes, a reaction mixture containing 400 μM Amplex Red reagent, 30 mM putrescine, and 2 U/mL HRP in 50 mM sodium phosphate buffer (pH 7.4) was added to each well. Fluorescence was measured with a microplate reader (Flexstation3, Molecular Devices), under the conditions of excitation at 530 nm and emission at 590 nm, 1 hour after the addition of the mixture. Inhibition by each compound was measured as % reduction in signal, compared to the control without an inhibitor (diluted DMSO only). The data were fixed to a four-variable logistic model, and […] values were calculated using the GraphPad Prism program.
(§2) And, the activities of the compounds according to the present invention against recombinant human MAO-A (monoamine oxidase-A, Sigma-Aldrich) and recombinant human MAO-B (monoamine oxidase-B, Sigma-Aldrich) were evaluated in a similar manner to the activity evaluation method for recombinant human LOXL2, using 0.5 mM tyramine and 1 mM benzylamine as a substrate, respectively. In addition, the activities of the compounds according to the present invention against recombinant human DAO (diamine oxidase, R&D systems) were evaluated in a similar manner to the activity evaluation method for recombinant human LOXL2, using 1 mM putrescine as a substrate.

[2] = target: T2, recombinant human DAO (diamine oxidase) (Homo sapiens, UniProt P19801); test: Amplex Red HRP-coupled amine oxidase assay, recombinant human DAO; settings: 1 mM putrescine substrate, read-out: Inhibitory activity (IC50, nM) DAO
T2 construct: purchased R&D systems
T2 sequence (P19801 20-751): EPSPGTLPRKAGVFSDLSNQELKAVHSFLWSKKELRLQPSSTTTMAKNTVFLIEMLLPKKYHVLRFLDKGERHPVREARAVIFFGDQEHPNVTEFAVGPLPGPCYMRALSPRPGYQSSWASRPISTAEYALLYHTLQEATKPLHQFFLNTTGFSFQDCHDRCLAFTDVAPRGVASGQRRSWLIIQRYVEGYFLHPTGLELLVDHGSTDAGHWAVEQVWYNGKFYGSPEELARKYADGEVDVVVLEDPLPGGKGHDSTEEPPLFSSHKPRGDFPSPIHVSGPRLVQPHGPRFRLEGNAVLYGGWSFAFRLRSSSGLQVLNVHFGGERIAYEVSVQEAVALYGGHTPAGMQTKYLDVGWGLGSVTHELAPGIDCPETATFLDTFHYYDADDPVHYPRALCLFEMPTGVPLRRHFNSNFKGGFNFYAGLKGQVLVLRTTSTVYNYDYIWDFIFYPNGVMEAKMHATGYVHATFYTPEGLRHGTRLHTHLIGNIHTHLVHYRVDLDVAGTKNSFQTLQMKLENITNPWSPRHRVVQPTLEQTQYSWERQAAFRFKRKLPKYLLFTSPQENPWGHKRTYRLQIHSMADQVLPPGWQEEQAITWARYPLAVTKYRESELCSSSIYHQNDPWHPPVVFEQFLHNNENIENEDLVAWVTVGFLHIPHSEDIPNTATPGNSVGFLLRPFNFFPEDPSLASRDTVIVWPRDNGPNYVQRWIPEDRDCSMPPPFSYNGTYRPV
Description: as §1, §2

[3] = target: T3, recombinant human MAO-B (monoamine oxidase-B) (Homo sapiens, UniProt P27338); test: Amplex Red HRP-coupled amine oxidase assay, recombinant human MAO-B; settings: 1 mM benzylamine substrate, read-out: Inhibitory activity (IC50, nM) MAO-B
T3 construct: purchased Sigma-Aldrich
T3 sequence (P27338 1-520): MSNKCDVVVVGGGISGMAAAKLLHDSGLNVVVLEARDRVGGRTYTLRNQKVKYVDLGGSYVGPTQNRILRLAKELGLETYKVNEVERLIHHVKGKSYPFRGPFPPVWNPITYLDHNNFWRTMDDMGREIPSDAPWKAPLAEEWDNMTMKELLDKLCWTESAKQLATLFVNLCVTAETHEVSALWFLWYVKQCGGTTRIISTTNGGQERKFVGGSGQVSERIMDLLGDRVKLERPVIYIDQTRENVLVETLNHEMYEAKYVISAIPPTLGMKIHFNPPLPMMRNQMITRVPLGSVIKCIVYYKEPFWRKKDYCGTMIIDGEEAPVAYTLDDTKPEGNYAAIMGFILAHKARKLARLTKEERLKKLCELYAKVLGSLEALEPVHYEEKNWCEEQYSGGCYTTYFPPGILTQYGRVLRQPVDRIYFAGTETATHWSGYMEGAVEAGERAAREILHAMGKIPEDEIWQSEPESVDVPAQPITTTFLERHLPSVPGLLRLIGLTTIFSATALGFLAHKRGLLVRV
Description: as §1, §2

[4] = target: T4, recombinant human Lysyl Oxidase-Like 2 (LOXL2) (Homo sapiens, UniProt Q9Y4K0); test: Amplex Red HRP-coupled amine oxidase assay, recombinant human LOXL2; settings: 60 min incubation with enzyme at 37° C., putrescine substrate, read-out: Inhibitory activity (IC50, nM) human LOXL2
T4 construct: purchased R&D systems
T4 sequence (Q9Y4K0 26-774): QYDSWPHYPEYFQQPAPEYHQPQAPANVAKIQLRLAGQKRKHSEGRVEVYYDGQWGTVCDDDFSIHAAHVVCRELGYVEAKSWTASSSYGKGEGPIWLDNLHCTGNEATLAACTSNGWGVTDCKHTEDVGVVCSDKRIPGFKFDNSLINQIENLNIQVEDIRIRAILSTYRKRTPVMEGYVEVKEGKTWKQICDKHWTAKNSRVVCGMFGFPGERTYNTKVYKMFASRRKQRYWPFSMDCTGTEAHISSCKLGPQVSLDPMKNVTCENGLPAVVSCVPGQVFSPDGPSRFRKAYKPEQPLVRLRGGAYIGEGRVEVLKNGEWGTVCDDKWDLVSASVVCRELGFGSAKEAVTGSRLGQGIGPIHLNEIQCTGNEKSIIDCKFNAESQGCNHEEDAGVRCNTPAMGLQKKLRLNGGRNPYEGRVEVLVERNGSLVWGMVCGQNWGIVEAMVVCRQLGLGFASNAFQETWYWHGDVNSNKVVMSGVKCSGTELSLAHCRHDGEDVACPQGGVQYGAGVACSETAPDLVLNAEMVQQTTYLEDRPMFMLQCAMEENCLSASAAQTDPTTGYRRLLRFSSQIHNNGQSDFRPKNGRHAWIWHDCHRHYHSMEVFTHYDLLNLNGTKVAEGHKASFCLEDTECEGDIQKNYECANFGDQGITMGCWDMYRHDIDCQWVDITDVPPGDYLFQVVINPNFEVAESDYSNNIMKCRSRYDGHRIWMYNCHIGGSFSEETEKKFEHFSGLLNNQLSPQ
Outline: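 Putrescine substrate (30 mM) in 50 mM sodium phosphate pH 7.4, 37 °C; compounds preincubated 60 min with enzyme, 1% DMSO final, six-point curves. H2O2 detected via 400 μM Amplex Red/2 U/mL HRP, fluorescence (ex 530/em 590 nm) after 1 h; IC50 from four-parameter logistic fit of % signal reduction.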

IC50 [1] [nM] | IC50 [2] [nM] | IC50 [3] [nM] | IC50 [4] [nM] | SMILES
> 100000 | 2940 | 71200 | 54 | CS(=O)(=O)c1cccc(-c2cc(F)cc3c2ncn3C/C(F)=C/CN)c1 [Example 3, (Z)-3-fluoro-4-(6-fluoro-4-(3-(methylsulfonyl)phenyl)-1H-benzo[d]imidazol-1-yl)but-2-en-1-amine hydrochloride]
26500 | 2410 | > 100000 | 35 | NC/C=C(\F)Cn1cnc2c(-c3cccc(S(=O)(=O)N4CCCC4)c3)cc(F)cc21 [Example 7, (Z)-3-fluoro-4-(6-fluoro-4-(3-(pyrrolidin-1-ylsulfonyl)phenyl)-1H-benzo[d]imidazol-1-yl)but-2-en-1-amine hydrochloride]
 | 2830 | 97000 | 17.1 | COC(=O)c1cc(-c2cc(S(=O)(=O)NC3CC3)ccc2OC)c2nnn(C/C(F)=C/CN)c2c1 [Example 120, methyl (Z)-1-(4-amino-2-fluorobut-2-en-1-yl)-4-(5-(N-cyclopropylsulfamoyl)-2-methoxyphenyl)-1H-benzo[d][1,2,3]triazol-6-carboxylate hydrochloride]
> 100000 |  | > 100000 | 43.1 | N#Cc1cc(-c2cccc(S(=O)(=O)N3CCCC3)c2)c2ncn(C/C(F)=C/CN)c2c1 [Example 181, (Z)-1-(4-amino-2-fluorobut-2-en-1-yl)-4-(3-(pyrrolidin-1-ylsulfonyl)phenyl)-1H-benzo[d]imidazol-6-carbonitrile hydrochloride]
> 100000 |  | > 100000 | 28.7 | CN(C)S(=O)(=O)c1cccc(-c2cc(C#N)cc3c2ncn3C/C(F)=C/CN)c1 [Example 182, (Z)-3-(1-(4-amino-2-fluorobut-2-en-1-yl)-6-cyano-1H-benzo[d]imidazol-4-yl)-N,N-dimethylbenzenesulfonamide hydrochloride]
> 100000 |  | > 100000 | 99 | CC(=O)c1ccc(F)c(-c2cc(C#N)cc3c2ncn3C/C(F)=C/CN)c1 [Example 184, (Z)-4-(5-acetyl-2-fluorophenyl)-1-(4-amino-2-fluorobut-2-en-1-yl)-1H-benzo[d]imidazol-6-carbonitrile hydrochloride]
> 100000 |  | > 100000 | 95.5 | Cn1nccc1-c1cc(C#N)cc2c1ncn2C/C(F)=C/CN [Example 191, (Z)-1-(4-amino-2-fluorobut-2-en-1-yl)-4-(1-methyl-1H-pyrazol-5-yl)-1H-benzo[d]imidazol-6-carbonitrile hydrochloride]
> 100000 |  | > 100000 | 137 | CCn1nccc1-c1cc(C#N)cc2c1ncn2C/C(F)=C/CN [Example 192, (Z)-1-(4-amino-2-fluorobut-2-en-1-yl)-4-(1-ethyl-1H-pyrazol-5-yl)-1H-benzo[d]imidazol-6-carbonitrile hydrochloride]
 | 7440 |  | 281 | N#Cc1cc(-c2cccc(CO)c2Cl)c2nnn(C/C(F)=C/CN)c2c1 [Example 207, (Z)-1-(4-amino-2-fluorobut-2-en-1-yl)-4-[2-chloro-3-(hydroxymethyl)phenyl-1H-benzo[d][1,2,3]triazol-6-carbonitrile hydrochloride]
 | 432 |  | 264 | N#Cc1cc(-c2cncnc2)c2nnn(C/C(F)=C/CN)c2c1 [Example 210, (Z)-1-(4-amino-2-fluorobut-2-en-1-yl)-4-(pyrimidin-5-yl)-1H-benzo[d][1,2,3]triazol-6-carbo nitrile hydrochloride]
 | 1730 |  | 350 | Cn1nccc1-c1cc(C#N)cc2c1nnn2C/C(F)=C/CN [Example 211, (Z)-1-(4-amino-2-fluorobut-2-en-1-yl)-4-(1-methyl-1H-pyrazol-5-yl)-1H-benzo[d][1,2,3]triazol-6-carbonitrile hydrochloride]
